Measured values from patent US7723358B2, “Aroyl-O-piperidine derivatives for the treatment of diabetes-related problems” (Merck Patent GmbH, priority 2004, dated 2010).

Target: T1, microsomal triglyceride transfer protein (MTP) (Mesocricetus auratus, UniProt P55158)
T1 construct: The supernatant comprising the soluble MTP is dialysed against Tris/HCl 150 mM; from tissue; host or cells: golden hamster liver microsomes, deoxycholate-solubilised supernatant, dialysed
T1 sequence (P55158 19-895): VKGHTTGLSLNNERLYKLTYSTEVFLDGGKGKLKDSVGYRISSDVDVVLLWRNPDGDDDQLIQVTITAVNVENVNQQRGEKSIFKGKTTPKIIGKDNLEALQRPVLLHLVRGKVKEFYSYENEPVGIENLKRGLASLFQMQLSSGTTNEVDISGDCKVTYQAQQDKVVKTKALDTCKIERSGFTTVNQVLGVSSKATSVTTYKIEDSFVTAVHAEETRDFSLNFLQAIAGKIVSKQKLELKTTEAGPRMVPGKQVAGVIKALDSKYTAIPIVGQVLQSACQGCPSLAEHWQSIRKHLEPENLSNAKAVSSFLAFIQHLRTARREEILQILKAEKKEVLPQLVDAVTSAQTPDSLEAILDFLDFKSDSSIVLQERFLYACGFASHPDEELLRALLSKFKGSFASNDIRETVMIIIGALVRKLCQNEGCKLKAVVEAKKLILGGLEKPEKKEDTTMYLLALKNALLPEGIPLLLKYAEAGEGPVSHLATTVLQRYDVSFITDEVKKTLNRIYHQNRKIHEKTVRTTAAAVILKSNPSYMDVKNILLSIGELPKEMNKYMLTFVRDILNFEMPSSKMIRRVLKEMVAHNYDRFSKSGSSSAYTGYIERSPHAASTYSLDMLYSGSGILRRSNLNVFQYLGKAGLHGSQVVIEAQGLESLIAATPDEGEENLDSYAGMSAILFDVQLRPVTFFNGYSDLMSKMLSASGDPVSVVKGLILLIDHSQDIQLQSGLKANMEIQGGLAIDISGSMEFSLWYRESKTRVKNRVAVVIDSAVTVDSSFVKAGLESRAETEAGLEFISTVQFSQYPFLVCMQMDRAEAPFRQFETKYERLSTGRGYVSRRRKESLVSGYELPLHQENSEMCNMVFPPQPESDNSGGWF
Assay: Inhibition of MTP activity: transfer of [3H]-triolein from donor liposomes to biotinylated LDL, SPA
Type: biochemical
Conditions: MTP from golden hamster liver; incubation 18-24 hours at 37° C.; read-out: IC50, concentration that allows a 50% inhibition of MTP
Protocol: Analysis of the Inhibition of MTP Activity
The inhibition of the activity of microsomal triglyceride transfer protein (MTP) was tested by using the following operating protocol.
The inhibition of MTP activity with a compound can be quantified by observing the inhibition of the transfer of a labelled triglyceride, from a donor particle to an acceptor particle, in the presence of MTP. The procedure for the preparation of MTP is based on the method by Wetterau and Zilversmit (Biochem. Biophys. Acta (1986) 875, 610). A few grams of golden hamster liver are taken and then rinsed several times in a 250 mM sucrose solution at 0° C. All the following steps proceed at +4° C. A homogenate at a concentration of 50% in 250 mM sucrose is prepared using a Teflon mill and then centrifuged for 10 minutes at 10 000×g at +4° C. The supernatant is then centrifuged at 105 000×g for 75 minutes at +4° C. The supernatant is discarded and the microsomal pellet is taken up in 3 ml (per g of starting liver) of Tris/HCl 150 mM pH 8.0. 1-ml aliquot fractions are stored at −80° C. until the time of use.
After thawing a fraction of microsomes (1 ml), 12 ml of refrigerated Tris/HCl 50 mM, KCl 50 mM, MgCl2 5 mM pH 7.4 buffers and 1.2 ml of deoxycholate (0.54% in water) are added. After incubation for 30 minutes at +4° C. with gentle agitation, the suspension is centrifuged at 105 000×g for 75 minutes. The supernatant comprising the soluble MTP is dialysed against Tris/HCl 150 mM, NaCl 40 mM, EDTA 1 mM, 0.02% sodium azide pH 7.4 buffer (5 times one litre over 2-3 days). The MTP is stored at +4° C., is stable for at least 30 days and is used in unmodified form in the test.
The donor particles (liposomes) are prepared from 208 μl of L-phosphatidylcholine at a concentration of 10 mg/ml in chloroform, and 480 μl of [3H]-triolein at a concentration of 0.5 mCi/ml in toluene. After stirring, the solution is evaporated under nitrogen, taken up in 6 ml of Tris/HCl 50 mM, KCl 50 mM, MgCl2 5 mM pH 7.4 buffer and incubated in an ultrasound bath for 30 minutes at room temperature. The liposomes are stored at +4° C. and sonicated again for 10 minutes before each use.
The acceptor particles are biotinylated low density lipoproteins (LDL-biot). These particles are supplied by the company Amersham.
The reaction mixture is prepared in untreated ½ well white plates (Corning Costar) by addition, in the following order, of: 5 μl of HEPES 50 mM, NaCl 150 mM, BSA 0.1% (w/v), 0.05% sodium azide (w/v), pH 7.4 buffer; 5 μl of liposome; 5 μl of LDL-biot; 5 μl of test products in DMSO; 5 μl of MTP. After incubation for 18-24 hours at 37° C., the reaction is stopped by adding 100 μl of Amersham SPA (Scintillation Proximity Assay) beads coupled to streptavidin, and the radioactivity is counted using a Top Count (Packard) machine at least one hour later. The inhibition of the transfer of the triglycerides with a compound is reflected by a reduction in the transferred radioactivity.
The results are expressed in terms of the IC50, i.e. the concentration that allows a 50% inhibition of MTP.

IC50 [nM]	Structure (SMILES)
201	COC(=O)c1cccc(NC(=O)N2CCC(Oc3cccc(NC(=O)c4cccc(C)c4-c4ccc(OC(F)(F)F)cc4)c3)CC2)c1 [Example 43, methyl 3-[[[4-[3-[[[6-methyl-4′-(trif1uoro-methoxy)[1,1′-biphenyl]-2-yl]carbonyl]-amino]phenoxy]-1-piperidinyl]carbonyl]-amino]benzoate]
219	Cc1ccc(C(=O)N2CCC(Oc3cccc(NC(=O)c4ccccc4-c4ccc(OC(F)(F)F)cc4)c3)CC2)cc1 [Example 130, N-[3-[[1-(4-methylbenzoyl)-4-piperidinyl]-oxy]phenyl]-4′-(trifiuoromethoxy)[1,1′-biphenyl]-2-carboxamide]
187	Cc1cccc(C(=O)Nc2cccc(OC3CCN(C(=O)NC4CCCC4)CC3)c2)c1-c1ccc(OC(F)(F)F)cc1 [Example 57, N-cyclopentyl-4-[3-[[[6-methyl-4′-(trifluoro-methoxy)[1,1′-biphenyl]-2-yl]carbonyl]-amino]phenoxy]-1-piperidinecarboxamide]
182	Cc1cccc(C(=O)Nc2cccc(OC3CCN(C(=O)c4cccnc4)CC3)c2)c1-c1ccc(OC(F)(F)F)cc1 [Example 106, 6-methyl-N-[3-[[1-(3-pyridinylcarbonyl)-4-piperidinyl]oxy]phenyl]-4′-(trifluorometh-oxy)[1,1′-biphenyl]-2-carboxamide]
551	COC(=O)[C@@H](NC(=O)N1CCC(Oc2cccc(NC(=O)c3cccc(C)c3-c3ccc(OC(F)(F)F)cc3)c2)CC1)C(C)C [Example 49, methyl N-[[4-[3-[[[6-methyl-4′-(trifluoro-methoxy)[1,1′-biphenyl]-2-yl]carbonyl]-amino]phenoxy]-1-piperidinyl]carbonyl]-L-valinate]
347	Cc1cccc(C(=O)Nc2cccc(OC3CCN(C(=O)Nc4ccccc4)CC3)c2)c1-c1ccc(OC(F)(F)F)cc1 [Example 11, 4-[3-[[[6-methyl-4′-(trifluoromethoxy)[1,1′-biphenyl]-2-yl]carbonyl]amino]phenoxy]-N-phenyl-1-piperidinecarboxamide]
91.2	CC(=O)OCC(=O)N1CCC(Oc2cccc(NC(=O)c3ccccc3-c3ccc(OC(F)(F)F)cc3)c2)CC1 [Example 126, N-[3-[[1-[2-(acetyloxy)acetyl]-4-piperidin-yl]oxy]phenyl]-4′-(trifluoromethoxy)[1,1′-biphenyl]-2-carboxamide]
232	Cc1cccc(C(=O)Nc2cccc(OC3CCN(C(=O)NC(C)(C)C)CC3)c2)c1-c1ccc(OC(F)(F)F)cc1 [Example 28, N-(1,1-dimethylethyl)-4-[3-[[[6-methyl-4′-(trifluoromethoxy)[1,1′-biphenyl]-2-yl]-carbonyl]amino]phenoxy]-1-piperidine-carboxamide]
118	Cc1cccc(C(=O)Nc2cccc(OC3CCN(C(=O)c4ccccc4)CC3)c2)c1-c1ccc(OC(F)(F)F)cc1 [Example 143, N-[3-[(1-benzoyl-4-piperidinyl)oxy]phenyl]-6-methyl-4′-(trifluoromethoxy)[1,1′-biphenyl]-2-carboxamide]

The next lines start with the molecule.

Structure (SMILES)	IC50 [nM]
CSc1ccc(NC(=O)N2CCC(Oc3cccc(NC(=O)c4cccc(C)c4-c4ccc(OC(F)(F)F)cc4)c3)CC2)cc1 [Example 39, N-[4-(methylthio)phenyl]-4-[3-[[[6-methyl-4′-(trifluoromethoxy)[1,1′-biphenyl]-2-yl]-carbonyl]amino]phenoxy]-1-piperidine-carboxamide]	85.7
Cc1cccc(C(=O)Nc2cccc(OC3CCN(C(=O)NC4CCCCC4)CC3)c2)c1-c1ccc(OC(F)(F)F)cc1 [Example 34, N-cyclohexyl-4-[3-[[[6-methyl-4′-(trifluoro-methoxy)[1,1′-biphenyl]-2-yl]carbonyl]-amino]phenoxy]-1-piperidinecarboxamide]	296
Cc1cccc(C(=O)Nc2cccc(OC3CCN(C(=O)Nc4ccccc4OC(F)(F)F)CC3)c2)c1-c1ccc(OC(F)(F)F)cc1 [Example 47, 4-[3-[[[6-methyl-4′-(trifluoromethoxy)[1,1′-biphenyl]-2-yl]carbonyl]amino]phenoxy]-N-(2-(trifluoromethoxy)phenyl]-1-piperi-dinecarboxamide]	158
Cc1cccc(CN2CCC(Oc3cccc(NC(=O)c4cccc(C)c4-c4ccc(OC(F)(F)F)cc4)c3)CC2)n1 [Example 83, 6-methyl-N-[3-[[1-[(6-methyl-2-pyridinyl)-methyl]-4-piperidinyl]oxy]phenyl]-4′-(trifluoromethoxy)[1,1′-biphenyl]-2-carboxamide]	633
Cc1cccc(C(=O)Nc2cccc(OC3CCN(C(=O)c4ccc([N+](=O)[O-])cc4)CC3)c2)c1-c1ccc(OC(F)(F)F)cc1 [Example 114, 6-methyl-N-[3-[[1-(4-nitrobenzoyl)-4-piperidinyl]oxy]phenyl]-4′-(trifluorometh-oxy)[1,1′-biphenyl]-2-carboxamide]	202
Cc1cccc(C(=O)Nc2cccc(OC3CCN(Cc4cccnc4)CC3)c2)c1-c1ccc(OC(F)(F)F)cc1 [Example 81, 6-methyl-N-[3-[[1-(3-pyridinylmethyl)-4-piperidinyl]oxy]phenyl]-4′-(trifluorometh-oxy)[1,1′-biphenyl]-2-carboxamide]	315
CCOC(=O)c1ccc(NC(=O)N2CCC(Oc3cccc(NC(=O)c4cccc(C)c4-c4ccc(OC(F)(F)F)cc4)c3)CC2)cc1 [Example 27, ethyl 4-[[[4-[3-[[[6-methyl-4′-(trifluorometh-oxy)[1,1′-biphenyl]-2-yl]carbonyl]amino]-phenoxy]-1-piperidinyl]carbonyl]amino]-benzoate]	295
Cc1cccc(C(=O)Nc2cccc(OC3CCN(Cc4ccccc4)CC3)c2)c1-c1ccc(OC(F)(F)F)cc1 [Example 58, [1,1′-biphenyl]-6-methyl-N-[3-[[1-(phenyl-methyl)-4-piperidinyl]oxy]phenyl]-4′-(trifluoromethoxy)-2-carboxamide]	74.1
COc1ccc(CC(=O)N2CCC(Oc3cccc(NC(=O)c4cccc(C)c4-c4ccc(OC(F)(F)F)cc4)c3)CC2)cc1OC [Example 105, N-[3-[[1-[2-(3,4-dimethoxyphenyl)-acetyl]-4-piperidinyl]oxy]phenyl]-6-methyl-4′-(trifluoromethoxy)[1,1′-biphenyl]-2-carboxamide]	207
Cc1cccc(C(=O)Nc2cccc(OC3CCN(Cc4ccncc4)CC3)c2)c1-c1ccc(OC(F)(F)F)cc1 [Example 66, 6-methyl-N-[3-[[1-(4-pyridinylmethyl)-4-piperidinyl]oxy]phenyl]-4′-(trifluorometh-oxy)[1,1′-biphenyl]-2-carboxamide]	189
